From PMC3070195 (Bioconjugate chemistry, 2010)

Key:
Vero cells = assay: Cytotoxicity in Vero cells; type: cell-based, African green monkey; settings: 3 days, hemacytometer; for IC50: read-out: Cytotoxicity IC50 VERO cells
[1] = Cytotoxicity in uninfected PHA-stimulated PBM cells; type: cell-based, human; settings: human, uninfected PHA-stimulated PBM cells
[2] = Cytotoxicity in CEM cells; type: cell-based; settings: human, CEM (CEM-CCRF) T-lymphoblastoid cells
[3] = Cytotoxicity in Vero cells; type: cell-based, African green monkey; settings: African green monkey, Vero (kidney) cells
PBM cells = assay: Cytotoxicity in uninfected PHA-stimulated PBM cells; type: cell-based, human; settings: 6 days, cell growth, trypan blue exclusion

| SMILES | IC50 (Vero cells) [µM] | also measured |
| --- | --- | --- |
| Nc1ncnc2c1ncn2[C@H]1CC[C@@H](CO)O1 [ddA] | > 100 | – |
| O=c1ccn([C@H]2C=C[C@@H](CO)O2)c(=O)[nH]1 [d4U] | > 100 | – |
| NC(=O)c1ncn([C@@H]2O[C@H](COP(=O)(O)OC[C@H]3OC(O)[C@H](O)[C@@H](O)[C@@H]3O)[C@@H](O)[C@H]2O)n1 (stereo partly drawn) [10g, 1′-(3-Carbamoyl-1,2,4-triazoyl)-β-D-ribofuranose 5′-(α/β-D-glucopyranos-6-yl) phosphate] | > 100 | – |
| Nc1ncnc2c1ncn2[C@@H]1O[C@H](COP(=O)(O)OC[C@H]2OC(O)[C@H](O)[C@@H](O)[C@@H]2O)[C@@H](O)[C@@H]1O (stereo partly drawn) [10h, 1′-Adeninyl-β-D-arabinofuranose 5′-(α/β-D-glucopyranos-6-yl) phosphate] | > 100 | – |
| O=c1[nH]cnc2c1ncn2[C@H]1CC[C@@H](CO)O1 [ddI] | > 100 | – |
| NC(=O)c1ncn([C@@H]2O[C@H](CO)[C@@H](O)[C@H]2O)n1 [Virazole] | – | IC50 at 6 days [1]: > 100 µM; IC50 at 6 days [2]: 53 µM; IC50 at 3 days [3]: > 100 µM |
| O=c1[nH]c(=O)n([C@H]2C[C@H](O)[C@@H](CO)O2)cc1I [IdUrd] | > 100 | – |
| O=c1[nH]cnc2c1ncn2[C@H]1CC[C@@H](COP(=O)(O)OC[C@H]2OC(O)[C@H](O)[C@@H](O)[C@@H]2O)O1 (stereo partly drawn) [10e, 2′,3′-Dideoxyinosine 5′-(α/β-D-glucopyranos-6-yl) phosphate] | > 100 | – |
| Nc1ccn([C@@H]2O[C@H](CO)[C@@H](O)[C@@H]2O)c(=O)n1 [Ara-C, Ara-cytidine] | – | IC50 at 6 days [1]: 57 µM; IC50 at 6 days [2]: < 0.1 µM |
| Nc1ccn([C@@H]2O[C@H](COP(=O)(O)OC[C@H]3OC(O)[C@H](O)[C@@H](O)[C@@H]3O)[C@@H](O)[C@@H]2O)c(=O)n1 (stereo partly drawn) [10i, 1′-Cytosinyl-β-D-arabinofuranose 5′-(α/β-D-glucopyranos-6-yl) phosphate] | < 1 | – |
| Cc1cn([C@H]2C=CC(COP(=O)(O)OC[C@H]3O[C@H](O)[C@H](O)[C@@H](O)[C@@H]3O)O2)c(=O)[nH]c1=O (stereo partly drawn) [10b, 2′,3′-Didehydro-2′,3′-dideoxythymidine 5′-(α/β-D-glucopyranos-6-yl) phosphate] | > 100 | Cytotoxicity IC50 PBM cells (PBM cells): no cytotoxicity; Cytotoxicity IC50 VERO cells (Vero cells): no cytotoxicity |
| O=c1ccn([C@H]2C=C[C@@H](COP(=O)(O)OC[C@H]3OC(O)[C@H](O)[C@@H](O)[C@@H]3O)O2)c(=O)[nH]1 (stereo partly drawn) [10a, 2′,3′-Didehydro-2′,3′-dideoxyuridine 5′-(α/β-D-glucopyranos-6-yl) phosphate] | > 100 | – |
| O=c1[nH]c(=O)n([C@H]2C[C@H](O)[C@@H](COP(=O)(O)OC[C@H]3OC(O)[C@H](O)[C@@H](O)[C@@H]3O)O2)cc1I (stereo partly drawn) [10c, 2′-Deoxy-5-iodouridine 5′-(α/β-D-glucopyranos-6-yl) phosphate] | > 100 | – |
| O=c1[nH]c(=O)n([C@H]2C[C@H](OP(=O)(O)OC[C@H]3O[C@H](O)[C@H](O)[C@@H](O)[C@@H]3O)[C@@H](CO)O2)cc1I [10d, 2′-Deoxy-5-iodouridine 3′-(α/β-D-glucopyranos-6-yl) phosphate] | > 100 | – |
| Nc1ncnc2c1ncn2[C@@H]1O[C@H](CO)[C@@H](O)[C@@H]1O [Ara-A, ara-adenosine] | – | IC50 at 6 days [1]: 26 µM; IC50 at 6 days [2]: 26.2 µM; IC50 at 3 days [3]: > 100 µM |
| Nc1ncnc2c1ncn2[C@H]1CC[C@@H](COP(=O)(O)OC[C@H]2OC(O)[C@H](O)[C@@H](O)[C@@H]2O)O1 (stereo partly drawn) [10f, 2′,3′-Dideoxyadenosine 5′-(α/β-D-glucopyranos-6-yl) phosphate] | 73.2 | – |
| Cc1cn([C@H]2C[C@H](N=[N+]=[N-])[C@@H](CO)O2)c(=O)[nH]c1=O [AZT, zidovudine] | – | IC50 at 6 days [1]: > 100 µM |
| Cc1cn([C@H]2C=C[C@@H](CO)O2)c(=O)[nH]c1=O [d4T] | > 100 | – |
